Assay results published in PMC8949129, “Unique Phenanthrenes from Juncus ensifolius and Their Antiproliferative and Synergistic Effects with the Conventional Anticancer Agent Doxorubicin against Human Cancer Cell Lines” (Pharmaceutics, 2022).
Where two headings read alike, the source gives them in different places.

Legend:
[1] = tested on: COLO 205 doxorubicin-sensitive colonic adenocarcinoma cells; experiment: Antiproliferative MTT assay, COLO 205; assay type: cell-based, human; settings: for IC50: MTT, 72 h, four parallel measurements, read-out: IC50 (µM) ± SD COLO 205; for SI MRC-5/COLO 205: selectivity index: IC50 in non-tumour cells / IC50 in cancer cells
Method: (§1) The human colon adenocarcinoma cells (COLO 205 sensitive and the resistant COLO 320/MDR-LRP expressing P-gp), namely, ATCC-CCL-220.1 (COLO 320) and CCL-222 (COLO 205) were cultured in RPMI 1640 medium supplemented with 10% heat-inactivated fetal bovine serum, 2 mM L-glutamine, 1 mM Na pyruvate, and 100 mM HEPES. HeLa (ATCC® CCL-2™) human cervix carcinoma cells, and MRC-5 (ATCC® CCL-171) human embryonal lung fibroblast cells were cultured in Eagle’s minimal essential medium (EMEM, containing 4.5 g/L glucose) supplemented with a non-essential amino acid mixture, a selection of vitamins, and 10% heat-inactivated fetal bovine serum. The cell lines were detached with 0.25% trypsin and 0.02% EDTA for 5 min at 37 °C.
(§2) In the study, human colonic adenocarcinoma cell lines (doxorubicin-sensitive COLO 205 and multidrug resistant COLO 320 colonic adenocarcinoma cells), HeLa human cervix carcinoma cells and the MRC-5 non-cancerous human embryonic lung fibroblast cell line were used to determine the effect of the compounds on cell growth. The effects of increasing concentrations of compounds on cell growth were tested in 96-well flat-bottomed microtiter plates. […] The compounds were diluted in a volume of 100 μL of the medium. The adherent cells were cultured in 96-well flat-bottomed microtiter plates using EMEM supplemented with 10% heat-inactivated fetal bovine serum. The density of the cells was adjusted to 6 × 10^3 cells in 100 µL per well, the cells were seeded prior to the assay for 24 h at 37 °C, with 5% CO2, and then the medium was removed from the plates, and fresh medium (100 µL per well) was added to the cells. The effects of increasing concentrations of compounds on cell proliferation were tested in 96-well flat-bottomed microtiter plates. The compounds were diluted in the appropriate medium; the dilutions of compounds were performed in separate plates and then added to the cells. The starting concentration of the compounds was 100 µM, and two-fold serial dilution was performed (concentration range: 100–0.19 µM). The culture plates were incubated at 37 °C for 72 h; at the end of the incubation period, 20 µL of MTT (thiazolyl blue tetrazolium bromide, Sigma) solution (from a stock solution of 5 mg/mL) was added to each well. After incubation at 37 °C for 4 h, 100 µL of sodium dodecyl sulfate (SDS) (Sigma) solution (10% in 0.01 M HCI) was added to each well, and the plates were further incubated at 37 °C overnight. Cell growth was determined by measuring the optical density (OD) at 540/630 nm, with a Multiscan EX ELISA reader (Thermo Labsystems, Cheshire, WA, USA). Inhibition of cell growth (expressed as IC50: inhibitory concentration that reduces the growth of the cells exposed to the tested compounds by 50%) was determined from the sigmoid curve where 100 − ((ODsample − ODmedium control)/(ODcell control − ODmedium control)) × 100 was plotted against the logarithm of the compound concentrations. Curves were fitted by Prism5 software (GraphPad Software Inc., San Diego, CA, USA) from four parallel experiments for each cell line. Results are expressed in terms of IC50, defined as the inhibitory dose that reduces the proliferation of the cells exposed to the tested compounds by 50% [20].

[2] = tested on: HeLa human cervix carcinoma cells; experiment: Antiproliferative MTT assay, HeLa; assay type: cell-based; settings: for IC50: Homo sapiens, HeLa, MTT, 72 h, four parallel measurements, read-out: IC50 (µM) ± SD HeLa; for SI MRC-5/HeLa: selectivity index: IC50 in non-tumour cells / IC50 in cancer cells
Method: as §1, §2

[3] = tested on: HeLa, COLO 205, and COLO 320 cancer cells; experiment: Antiproliferative MTT assay, summary over the tested cell lines; assay type: cell-based; settings: Homo sapiens, 72 h, COLO 205, COLO 320, read-out: IC50 values, range over the cancer cell lines
Method: as §1
In the study, human colonic adenocarcinoma cell lines (doxorubicin-sensitive COLO 205 and multidrug resistant COLO 320 colonic adenocarcinoma cells), HeLa human cervix carcinoma cells and the MRC-5 non-cancerous human embryonic lung fibroblast cell line were used to determine the effect of the compounds on cell growth. The effects of increasing concentrations of compounds on cell growth were tested in 96-well flat-bottomed microtiter plates. […] The compounds were diluted in a volume of 100 μL of the medium. […] Cell growth was determined by measuring the optical density (OD) at 540/630 nm, with a Multiscan EX ELISA reader (Thermo Labsystems, Cheshire, WA, USA). […]

[4] = tested on: COLO 320/MDR-LRP multidrug resistant colonic adenocarcinoma cells expressing P-gp; experiment: Antiproliferative MTT assay, COLO 320; settings: for IC50: Homo sapiens, COLO 320, 72 h, read-out: IC50 (µM) ± SD COLO 320; for SI MRC-5/COLO 320: selectivity index: IC50 in non-tumour cells / IC50 in cancer cells
Method: as §1, §2

HeLa cells = experiment: Drug combination assay with doxorubicin (MTT, CompuSyn); assay type: cell-based, human; set-up: key to CI (combination index): CI <1 synergy, ~1 additivity, >1 antagonism; settings: for Interaction: interaction type with doxorubicin; for CI (combination index): with doxorubicin, 72 h, average over drug ratios at IC50
Method: The HeLa cell line was used to perform this assay. Doxorubicin (2 mg/mL, Teva Pharmaceuticals, Budapest, Hungary) was serially diluted in the horizontal direction, starting with 8.6 µM. The resistance modifier was subsequently diluted in the vertical direction, and the starting concentration was determined based on the IC50. The dilutions of doxorubicin were made in a horizontal direction in 100 µL, and the dilutions of the resistance modifiers occurred vertically in the microtiter plate in a 50 µL volume. The compounds and doxorubicin were diluted separately. […] Then, diluted compounds with a volume of 50 μL were added to each well to reach a final volume of 200 μL. The plates were incubated for 72 h at 37 °C in a CO2 incubator, and at the end of the incubation period, the cell growth was determined by the MTT staining method, as described earlier. Drug interactions were evaluated using CompuSyn software. Each dose-response curve (for individual agents as well as combinations) was fit to a linear model using the median effect equation in order to obtain the median effect value (corresponding to the IC50) and slope (m). The goodness-of-fit was assessed using the linear correlation coefficient, r, and only data from analysis with r > 0.90 are presented. The extent of the interaction between drugs was expressed using the combination index in which a CI value close to 1 indicates additivity, while CI < 1 is defined as synergy and CI > 1 as antagonism.

[5] = tested on: MRC-5 human embryonal lung fibroblast cells; experiment: Antiproliferative MTT assay, MRC-5 non-tumor cells; assay type: cell-based; settings: Homo sapiens, MRC5, 72 h, four parallel measurements, read-out: IC50 (µM) ± SD MRC-5
Method: as §1, §2

[6] = Stability of the hemiacetal, 1H NMR measured again; assay type: physicochemical; settings: 1H NMR measured again one day later; two sets of signals approx. 1:0.6
From the text: Compound 2 (ensifolin B) has the molecular formula C25H24O4 compatible with the fragment ion in the HRESIMS at m/z 369.1497 [M − H2O − H]^− (calcd for 369.1491). […] The structure of the phenanthrene skeleton was assembled through 2D NMR analysis. It was concluded that the phenanthrene core of compound 2 is identical to sylvaticin A, a 9,10-dihydrophenanthrene recently described from Luzula sylvatica. However, NMR characteristics of the H2-11 oxymethylene in 2 are different compared to those of sylvaticin A, including its […] shifted carbon (δC 66.2 vs. 60.2) and magnetically inequivalent protons (δH 5.19 and 5.09, vs. δH 5.01, 2H, s). […] Similar to compound 1, ensifolin B (2) also has an asymmetric carbon atom (C-1′). The specific rotation value [α ]D25 of the compound was +2 (c 0.1, MeOH). When compound 2 was injected onto a chiral HPLC column, it eluted with two well-separated peaks with a peak ratio area of 1:1. […] Intermolecular hemiacetals are intrinsically unstable with respect to their parent alcohols and aldehydes. […] Considering that sylvaticin A and 4-hydroxybenzaldehyde, the minor compounds of the mixture were also isolated from other fractions (compound 16 and 18, respectively), it is unclear whether these phytochemicals originally presented in the harvested plant material or whether they are just by-products of the decomposition of compound 2.

stability of initially pure compound [6] | Structure (SMILES) | activity relative to positive control cisplatin ([1]; COLO 205 cells) | IC50 ([1]; Homo sapiens, COLO 205, 72 h) [µM] | IC50 [1] [µM] | IC50 [2] [µM] | SI MRC-5/HeLa [2] | IC50 [3] [µM] | IC50 [4] [µM] | SI MRC-5/COLO 320 [4] | Interaction (HeLa cells) | CI (combination index) (HeLa cells) | IC50 [5] [µM] | SI MRC-5/COLO 205 [1]
– | Cc1cc(O)c2c(c1C(O)COc1cc(-c3cc(=O)c4c(O)cc(O)cc4o3)ccc1O)CCc1c-2ccc(O)c1C (stereo not drawn) [Compound 1, Ensifolin A] | more than ten-fold | 3.9 | 3.86 ± 0.08 | 8.25 ± 0.51 | 2.34 | 3.9 to 12.7 | 12.71 ± 0.05 | 1.52 | strong synergism (0.1 < CI < 0.3: strong synergism) | 0.272 | 19.3 ± 0.54 | –
showed signs of decomposition | C=Cc1cc(C)cc2c1-c1ccc(O)c(COC(O)c3ccc(O)cc3)c1CC2 (stereo not drawn) [Compound 2, Ensifolin B] | – | 45.6 ± 0.5 | – | 33.49 ± 0.29 | 1.55 | – | 37.24 ± 0.11 | 1.39 | synergism (0.3 < CI < 0.7: synergism) | 0.584 | 51.87 ± 0.14 | 1.14
– | C=Cc1cc(C)cc2c1-c1ccc(O)c(C)c1C(O)C2 (stereo not drawn) [Compound 3, 2,10-dihydroxy-1,7-dimethyl-5-vinyl-9,10-dihydrophenanthrene] | – | > 100 | – | > 100 | – | – | > 100 | – | synergism (0.3 < CI < 0.7: synergism) | 0.580 | > 100 | –
– | C=Cc1cc(C)cc2c1-c1ccc(O)c(COC)c1CC2 [Compound 4, Ensifolin D] | – | 65.6 ± 0.78 | – | 19.4 ± 0.33 | >5.15 | – | 61.6 ± 9.95 | >1.62 | synergism (0.3 < CI < 0.7: synergism) | 0.643 | > 100 | >1.52
– | C=Cc1c(C)cc(O)c2c1CCc1c-2ccc(O)c1C [Compound 5, 2,5-dihydroxy-1,7-dimethyl-8-vinyl-9,10-dihydrophenanthrene] | – | 31.2 ± 0.66 | – | 27.5 ± 1.19 | 1.61 | 25.2 to 31.2 | 25.2 ± 0.92 | 1.76 | very strong synergism (CI < 0.1: very strong synergism) | – | 44.3 ± 0.61 | 1.42
– | C=Cc1c(CO)cc(O)c2c1CCc1c-2ccc(O)c1C [Compound 6, Ensifolin F] | – | > 100 | – | 74.3 ± 2.98 | >1.35 | – | 93.71 ± 0.14 | >1.07 | strong synergism (0.1 < CI < 0.3: strong synergism) | 0.159 | > 100 | –
– | CC(=O)c1c(C)cc(O)c2c1CCc1c-2ccc(O)c1C [Compound 7, Ensifolin G] | – | > 100 | – | 75.6 ± 0.94 | >1.32 | – | > 100 | – | synergism (0.3 < CI < 0.7: synergism) | 0.568 | > 100 | –
– | C=Cc1c(C)cc(O)c2c1CCc1c-2cc(-c2cc3c(c(C)c2O)CCc2c(C=C)c(C)cc(O)c2-3)c(O)c1C [Compound 10, Ensifolin J] | – | 44.5 ± 1.22 | – | 33.5 ± 1.89 | 1.72 | – | 42.8 ± 1.28 | 1.35 | synergism (0.3 < CI < 0.7: synergism) | 0.454 | 57.8 ± 1.32 | 1.30
– | C=Cc1c(C)cc(O)c2c1CCc1c-2cc(-c2c(O)c(C)c(C=C)c3ccc4c(C)c(O)ccc4c23)c(O)c1C [Compound 11, Ensifolin K] | – | 31.4 ± 0.72 | – | 29.5 ± 0.31 | 1.12 | – | 37.8 ± 1.05 | 0.88 | strong synergism (0.1 < CI < 0.3: strong synergism) | 0.112 | 33.16 ± 0.05 | 1.06
